Tested on: FRT CFTR-F508del YFP iodide quenching, 24 h
Assay: CFTR-F508del correctors, dose response, FRT cells, YFP quenching, cherry-pick (AID 743402);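 note: compounds act as correctors raising surface CFTR-F508del before acute activation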
[1] = channel opened with forskolin and a potentiator

Structure (SMILES)	AC35 [1]	AC35
CCOC(=O)C1CCCN(c2ccc([N+](=O)[O-])c3nonc23)C1 (configuration not stated)	5.34 µM	
Nc1c2ccccc2nc2ccccc12	12.9 µM	
COc1ccc(S(=O)(=O)N2CC[C@@H]3[C@H](CO)N(C)c4ccc(-c5ccc(F)cc5)cc4[C@@H]32)cc1	15.3 µM	
COc1cccc(S(=O)(=O)N2C[C@@H]3N[C@H](C2)C3c2ccc(-c3ccccc3F)cc2)c1 (some centres not stated)	24.5 µM	
O=C1/C(=C\c2cc(Cl)c(O)c(Cl)c2)SC(=S)N1Cc1ccccc1	0.214 µM	
C[C@@H]1CN([C@@H](C)CO)C(=O)Cc2cc(N(C)C)ccc2O[C@@H]1CN(C)Cc1ccc(C(=O)Nc2ccccc2N)cc1	19.7 µM	
CCCC#Cc1ccc([C@H]2[C@H](CO)N3C(=O)CN(C(=O)Nc4cc(F)ccc4F)C[C@@H]23)cc1	23.3 µM	
Cc1cc(C)c(/C=C2\C(=O)Nc3ccccc32)[nH]1	3.24 µM	
CCN1/C(=C/c2ccc3cc(C)cc(C)c3[n+]2CC)Sc2cc(C)ccc21	1.05 µM	
COC(=O)c1ccccc1-c1c2ccc(=N)cc-2oc2cc(N)ccc12	0.0334 µM	
C=C1C(=O)O[C@@H]2C[C@@H](C)[C@@H]3C=CC(=O)[C@@]3(C)[C@@H](O)[C@H]12		5.32 µM
O=C(Nc1cccc(F)c1)N1CCCCN2[C@@H](CO)[C@H](c3ccc(C#Cc4ccccc4)cc3)[C@@H]2C1	19.7 µM	
O=[N+]([O-])c1ccc(Sc2cccc[n+]2[O-])c2nonc12	4.93 µM	
CN(C)/C=C1\C=C2C(=O)c3ccccc3N2C1=O	2.19 µM	
C=CCCC(=O)Nc1nc(C)c(-c2csc(Nc3cc(OC)ccc3OC)n2)s1	4.51 µM	
CC(C)Nc1nc(Nc2ccc(Cl)cc2F)c2sccc2n1	12.7 µM	
COc1ccc(OC)c(-c2nnc3n2N=C(c2ccc(OC)c(OC)c2)CS3)c1	5.34 µM	
CC(C)(C)c1ccc(OCC(=O)Nc2ccc3c4c(cccc24)C(=O)NC3=O)cc1	6.68 µM	
Cc1ccnc(N2C(=O)c3cccc4c([N+](=O)[O-])ccc(c34)C2=O)c1	7.01 µM	
CN(C)CCNc1ccc2ncn3c4ccc(O)cc4c(=O)c1c23	8.57 µM	
COc1ccc(S(=O)(=O)Nc2ccc3c(c2)C(=O)N([C@@H](C)CO)C[C@@H](C)[C@H](CN(C)Cc2ccc(Oc4ccccc4)cc2)O3)cc1	1.52 µM	
COc1ccc(-c2cnc3c(NC=O)cc(-c4ccccc4)cn23)cc1OC	10.4 µM	
COc1cccc2c1C(=O)c1c(O)c3c(c(O)c1C2=O)C[C@](O)(C(C)=O)C[C@H]3O[C@@H]1C[C@@H](N)[C@@H](O)[C@@H](C)O1	1.65 µM	
Cc1ccc(S(=O)(=O)Nc2ccc3c(c2)CC(=O)N([C@@H](C)CO)C[C@@H](C)[C@@H](CN(C)Cc2ccc(Cl)c(Cl)c2)O3)cc1	22.6 µM	
COc1ccc(C(=O)NCCN(C)C)c2nc3ccccc3cc12	25.7 µM	
N#Cc1ccc(-c2ccc(C3[C@@H]4CN(C(=O)C5CCC5)C[C@H]3N4)cc2)cc1 (some centres not stated)	22.1 µM	
N#C/C(=C/c1ccc(N2CCCCC2)o1)C(=O)Nc1ccc2ccccc2c1	2.37 µM	
